Test results from patent publication US6569638B1, “Method for screening compounds for the treatment of neoplasia” (Cell Pathways, Inc, priority 2000, dated 2003).

How the values were obtained:
[1] = test system: JNK1 in SW480 colon cancer cells; test: JNK1 immunoprecipitation in vitro kinase assay with GST-c-Jun(1-79); assay type: cell-based, human; conditions: SW480 cells, one hour; sulindac sulfide 50-500 μM, exisulind 100-600 μM, Compound A 0.1-5 μM, Compound B 1-50 μM
Method: The cells were lysed, JNK1 immunoprecipitated with an anti-JNK1 antibody, and the immunoprecipitate (“IP”) assayed for in vitro kinase activity with GST-c-Jun(1-79) as the substrate. The experiments were repeated three times with similar results. Fold activation was measured using a Phosphor Imager.
FIG. 1B: SW480 cells were treated with Compound A (1 μM) for the indicated time periods and in vitro JNK1 kinase activity was determined as described above.
FIG. 2A SW480 cells were treated with either DMSO (−) or Compound A, 0.1 μM; dbcGMP, 500 μM; YC-1, 50 μM; MY-5445, 50 μM; dipyridamole, 10 μM or dbcAMP, 500 μM for one hour. The cells were lysed, JNK1 immunoprecipitated, and the IP assayed for in vitro kinase activity as described in FIG. 1A.
FIG. 2B SW480 cells were pre-treated with either DMSO, KT5720 (2 μM) or Rp-8-pCPT-cGMPS (2 μM) for 2 hours and then treated with Compound B (0, 1 or 10 μM) for one hour. The cells were lysed and assayed for JNK1 activation in the IP as described above.
These concentrations were chosen since they provided optimal induction of apoptosis. Endogenous JNK1 was immunoprecipitated with anti-JNK1 antibody and in vitro kinase assays were performed with GST-c-Jun(1-79) as the substrate. […]
However, the precise role of PKG in signal transduction pathways is not known. […] As a control, KT5720 was used as a protein kinase A (“PKA”)-specific inhibitor. SW480 cells were treated with either DMSO, KT5720 (2 μM) or Rp-8-pCPT-cGMPS (2 μM) for 2 hours and then treated with either DMSO or Compound B (1 or 10 μM) for one hour. Cell extracts were collected and assayed for JNK1 activation.

caspase-3 in SW480 cells = test: Caspase-3 activity with Ac-DEVD-AFC substrate; assay type: cell-based, human; conditions: 24 hours, sulindac sulfide 200 μM, exisulind 600 μM, Compound A 1 μM, Compound B 10 μM
Method: The cells were lysed and the extracts assayed for caspase-3 activity using Ac-DEVD-AFC as the substrate, in the presence or absence of the caspase-3 inhibitor Ac-DEVD-CHO. Caspase-3 activity was calculated by subtracting the AFC fluorescence (excitation; 400 nm, emission; 505 nm) in the presence of Ac-DEVD-CHO from the AFC fluorescence in the absence of Ac-DEVD-CHO.
Protein extracts were then prepared and caspase-3 activity was measured with Ac-DEVD-AFC as the substrate, in the presence or absence of the caspase-3 inhibitor Ac-DEVD-CHO. […] Similar findings were obtained with HCT116 and HT29 cells (data not shown).

[2] = target: T1, GST-cGB-PDE5 fusion protein (cGMP binding sites of human PDE5A) (Homo sapiens, UniProt O76074); test: cGMP binding assay (3H-cGMP competition); conditions: 3H-cGMP 2 μM, 22° C., 1 hour
T1 construct: made in house; host or cells: E. coli BL21 (DE3)

[3] = test system: polyp and normal colonic tissues; test: Apoptosis rates in paired biopsies of APC patients; assay type: in vivo, human
[4] = Toxicity study in dogs (capsules); assay type: in vivo
Text: Thus, on a single-dose basis, Compound B is not acutely toxic.

28-day study in rats = assay type: in vivo
[5] = Single, escalating dose human safety study; assay type: in vivo; conditions: oral
LNCaP cells = test: Histone-associated fragmented DNA (apoptosis) in prostate tumor cells; assay type: cell-based, human; conditions: 50 μM Compound B (free base), up to 4 days
Method: (§1) The androgen-sensitive prostate tumor cell line, LNCaP (from ATCC (Rockville, Md.)) was propagated under standard conditions using […] medium containing 5% fetal calve serum and 2 mM glutamine. Primary prostate epithelial cell cultures (PrEC) derived from normal prostate (from Clonetics Inc. (San Diego, Calif.)) were grown under the same conditions as the tumor cell line except a serum-free medium optimized for the growth of such cultures was used (Clonetics Inc). For the experiments, LNCaP or PrEC cells were seeded in 96 well plates at a density of 10,000 cells per well. After 24 hours, the cells were treated with either vehicle (0.1% DMSO) or 50 μM Compound B (free base) solubilized in DMSO. After various drug treatment times ([…]) the cells were lysed and processed for measurement of histone-associated DNA as an indicator of apoptotic cell death (see, Piazza et al., Cancer Research 57: 2452-2459, 1997).

[6] = test system: cGMP-specific PDE from HT29 cell extracts; test: cGMP-specific PDE inhibition; assay type: biochemical, human
Method: (Thompson, W. J., Teraski, W. L., Epstein, P. M., Strada, S. J., Advances in Cyclic Nucleotide Research, 10:69-92, 1979, which is incorporated herein by reference). In brief, a solution of defined substrate ^3H-cGMP specific activity (0.2 μM; 100,000 cpm; containing 40 mM Tris-HCl (pH 8.0), 5 mM MgCl2 and 1 mg/mL BSA) is mixed with the drug to be tested in a total volume of 400 μl. The mixture is incubated at 30° C. for 10 minutes with isolated PDE of this invention. Reactions are terminated, for example, by boiling the reaction mixture for 75 seconds. After cooling on ice, 100 μl of 0.5 mg/mL snake venom (O. Hannah venom available from Sigma) is added and incubated for 10 minutes at 30° C. This reaction is then terminated by the addition of an alcohol, e.g. 1 mL of 100% methanol. Assay samples are applied to 1 mL Dowex 1-X8 column; and washed with 1 mL of 100% methanol. The amount of radioactivity in the breakthrough and the wash from the column is combined and measured with a scintillation counter. The degree of phosphodiesterase inhibition is determined by calculating the amount of radioactivity in drug-treated reactions and comparing against a control sample (a reaction mixture lacking the tested compound but with drug solvent).

PrEC cells = test: Histone-associated fragmented DNA (apoptosis) in normal prostate epithelial cells; assay type: cell-based, human; conditions: 50 μM, up to 4 days
Method: as §1

T1 sequence (O76074 46-539 limits assumed): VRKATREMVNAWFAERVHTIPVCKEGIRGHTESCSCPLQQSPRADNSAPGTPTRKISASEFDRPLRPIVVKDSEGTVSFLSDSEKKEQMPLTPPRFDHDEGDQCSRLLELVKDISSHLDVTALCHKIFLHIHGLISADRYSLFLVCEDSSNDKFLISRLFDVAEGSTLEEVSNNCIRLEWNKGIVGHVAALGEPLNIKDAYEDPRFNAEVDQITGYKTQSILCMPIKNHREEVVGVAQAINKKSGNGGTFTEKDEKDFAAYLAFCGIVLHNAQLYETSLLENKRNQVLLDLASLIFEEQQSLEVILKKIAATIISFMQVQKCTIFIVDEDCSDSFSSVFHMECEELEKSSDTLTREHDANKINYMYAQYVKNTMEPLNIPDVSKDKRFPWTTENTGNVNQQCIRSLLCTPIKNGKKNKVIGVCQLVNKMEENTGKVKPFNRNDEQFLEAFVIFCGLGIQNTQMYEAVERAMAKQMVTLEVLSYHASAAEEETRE

SMILES	JNK1 activation [1]	caspase-3 activation (caspase-3 in SW480 cells)	competition with cGMP for the cGMP binding sites of GST-cGB-PDE5 [2]	apoptosis rates in polyp versus normal colonic tissues [3]	oral LD50 [4]	signs of toxicity ([4]; capsules, single 1000 mg/kg)	signs of drug-related effects ([4]; single dose and seven consecutive doses of 1000 mg/kg/day)	liver weights (28-day study in rats; 28 days, 2000 mg/kg/day)	thyroid weights (28-day study in rats; 28 days, 2000 mg/kg/day)	clinical observations (28-day study in rats; 28 days, 50, 500 and 2000 mg/kg/day)	side effects [5]	histone-associated fragmented DNA (LNCaP cells)	IC50 [6] [nM]	DNA fragmentation (PrEC cells)
CC1=C(CC(=O)O)c2cc(F)ccc2/C1=C\c1ccc(S(C)(=O)=O)cc1 [exisulind, 5-fluoro-2-methyl-1-(p-methylsulfonylbenzylidene)-3-indenylacetic acid]	activated JNK1	led to activation of caspase-3	None of the PDE5 inhibitors showed any competition with cGMP	increased apoptosis rates in polyp, but not normal colonic tissues	–	–	–	–	–	–	–	–	–	–
CC1=C(CC(=O)NCc2ccccc2)c2cc(F)ccc2/C1=C\c1ccncc1.Cl [Compound B, (Z)-5-fluoro-2-methyl-(4-pyridylidene)-3-(N-benzyl)indenylacetamide hydrochloride]	activated JNK1	led to activation of caspase-3	None of the PDE5 inhibitors showed any competition with cGMP	–	greater than 1000 mg/kg	no signs of toxicity	At no time in either dosing phase were any obvious signs of drug-related effects observed	statistically significant increase in liver weights	statistically significant increases in thyroid weights	no abnormal clinical observations attributed to Compound B	no significant side effects at any dose	significant increase in fragmented DNA was detected after 24 hours of treatment	680	did not affect DNA fragmentation
